Data taken from a compilation of properties of binary mixtures (doi:10.1021/jp2012254).

Test: xn = mol fraction of the nth substance listed
Details: 298 K, 101 kPa

CCCC[n+]1ccn(C)c1.O=S(=O)([N-]S(=O)(=O)C(F)(F)F)C(F)(F)F + O
Details	electrical conductivity [S/m]	viscosity [mPa·s]
x2 = 0.0012	0.416	–
x2 = 0.0014	0.412	–
x2 = 0.0053	0.412	–
x2 = 0.0135	0.431	–
x2 = 0.0273	0.444	–
x2 = 0.0442	–	46.9
x2 = 0.0533	0.444	–
x2 = 0.0737	0.466	–
x2 = 0.0832	–	42.8
x2 = 0.1171	0.494	–
x2 = 0.1253	–	37.2
x2 = 0.1429	–	35.4
x2 = 0.1439	0.52	–
x2 = 0.1721	–	36
x2 = 0.1733	0.549	–
x2 = 0.2119	0.583	–
x2 = 0.2222	–	33.1
x2 = 0.2436	0.61	–
x2 = 0.2523	0.599	–
x2 = 0.2556	–	31
x2 = 0.2559	0.614	–

CCCC[n+]1ccn(C)c1.O=S(=O)([N-]S(=O)(=O)C(F)(F)F)C(F)(F)F + CC#N
Details	electrical conductivity [S/m]	viscosity [mPa·s]
x2 = 0.1027	0.514	–
x2 = 0.1028	–	39.6
x2 = 0.1514	0.567	–
x2 = 0.2513	0.72	–
x2 = 0.3638	–	17.8
x2 = 0.4169	1.08	–
x2 = 0.5016	1.37	–
x2 = 0.5238	–	9.4
x2 = 0.8396	3.67	–
x2 = 0.9485	4.03	–
x2 = 0.9667	3.41	–
x2 = 0.9794	2.69	–

CCCC[n+]1ccn(C)c1.O=S(=O)([N-]S(=O)(=O)C(F)(F)F)C(F)(F)F + CC(C)(C)O
Details	viscosity [mPa·s]
x2 = 0	50.4

CO + CCCC[n+]1ccn(C)c1.O=S(=O)([N-]S(=O)(=O)C(F)(F)F)C(F)(F)F
Details	viscosity [mPa·s]
x1 = 1	0.544

CCCC[n+]1ccn(C)c1.O=S(=O)([N-]S(=O)(=O)C(F)(F)F)C(F)(F)F + CO
Details	electrical conductivity [S/m]	viscosity [mPa·s]
x1 = 0.0104	0.94	–
x1 = 0.0197	–	0.71
x2 = 0	–	50.4
x2 = 0.0302	0.524	46.2
x2 = 0.0942	0.509	–
x2 = 0.1177	0.549	–
x2 = 0.1279	0.509	–
x2 = 0.1577	–	35.8
x2 = 0.16	–	34.2
x2 = 0.1706	0.514	–
x2 = 0.2298	–	28.8
x2 = 0.3938	0.651	–
x2 = 0.432	0.99	–
x2 = 0.5555	1.18	–
x2 = 0.6132	1.74	–
x2 = 0.6242	–	8.27
x2 = 0.662	1.89	–
x2 = 0.6647	1.96	–
x2 = 0.7009	2.12	–
x2 = 0.7546	2.28	–
x2 = 0.7799	2.29	–
x2 = 0.7983	2.45	–
x2 = 0.8188	2.49	–
x2 = 0.8248	–	2.61
x2 = 0.8272	2.51	–
x2 = 0.8805	2.58	–
x2 = 0.8953	–	1.47
x2 = 0.9305	2.42	–
x2 = 0.9462	2.23	–
x2 = 0.9721	1.73	–

CCCC[n+]1ccn(C)c1.O=S(=O)([N-]S(=O)(=O)C(F)(F)F)C(F)(F)F + CCCCO
Details	electrical conductivity [S/m]	viscosity [mPa·s]
x2 = 0.0121	0.408	–
x2 = 0.1048	–	41.5
x2 = 0.1229	0.477	–
x2 = 0.3394	0.578	–
x2 = 0.3437	–	22.9
x2 = 0.4228	0.633	–
x2 = 0.4428	0.667	–
x2 = 0.5066	–	15.2
x2 = 0.518	0.677	–
x2 = 0.545	0.677	–
x2 = 0.5556	0.676	–
x2 = 0.5882	0.675	–
x2 = 0.608	0.674	–
x2 = 0.6656	0.66	–
x2 = 0.6796	0.67	–
x2 = 0.7193	–	8.92
x2 = 0.7316	0.59	8.55
x2 = 0.7458	0.57	–
x2 = 0.7645	0.56	–
x2 = 0.7951	0.507	–
x2 = 0.8487	0.401	–
x2 = 0.8618	–	5.83
x2 = 0.878	0.349	–

CC#N + CCCC[n+]1ccn(C)c1.O=S(=O)([N-]S(=O)(=O)C(F)(F)F)C(F)(F)F
Details	viscosity [mPa·s]
x1 = 1	0.37

CC(C)(C)O + CCCC[n+]1ccn(C)c1.O=S(=O)([N-]S(=O)(=O)C(F)(F)F)C(F)(F)F
Details	electrical conductivity [S/m]	viscosity [mPa·s]
x1 = 0.2367	–	35.8
x1 = 0.3616	0.485	–
x1 = 0.401	0.488	–
x1 = 0.4577	0.497	–
x1 = 0.4791	0.5	–
x1 = 0.5125	0.503	–
x1 = 0.5277	–	20.8
x1 = 0.538	0.507	–
x1 = 0.5851	0.505	–
x1 = 0.7215	0.476	–
x1 = 0.785	0.377	–
x1 = 1	–	3.41

ClCCl + CCCC[n+]1ccn(C)c1.O=S(=O)([N-]S(=O)(=O)C(F)(F)F)C(F)(F)F
Details	electrical conductivity [S/m]	viscosity [mPa·s]
x1 = 0.0175	0.453	–
x1 = 0.1758	–	33.7
x1 = 0.243	0.454	–
x1 = 0.3232	–	21.8
x1 = 0.3949	0.464	–
x1 = 0.4152	0.539	–
x1 = 0.4391	–	15.41
x1 = 0.4625	0.586	–
x1 = 0.4718	0.634	–
x1 = 0.5413	0.657	–
x1 = 0.5646	–	10.01
x1 = 0.6165	1.08	–
x1 = 0.6861	1.18	–
x1 = 0.7283	–	4.25
x1 = 0.7345	1.33	–
x1 = 0.7725	1.47	–
x1 = 0.7751	1.37	–
x1 = 0.776	1.47	–
x1 = 0.8389	1.46	–
x1 = 0.9008	1.21	–
x1 = 0.9319	0.95	–
x1 = 0.9506	0.739	–
x1 = 0.9696	0.46	–
x1 = 1	–	0.433
x2 = 0.0163	0.242	–
x2 = 0.0187	0.287	–

CCCCO + CCCC[n+]1ccn(C)c1.O=S(=O)([N-]S(=O)(=O)C(F)(F)F)C(F)(F)F
Details	viscosity [mPa·s]
x1 = 1	2.6
